SMILES strings stand for the structures.

Data set [1] addresses T1, Solute carrier family 22 member 6 (Rattus norvegicus, UniProt O35956).
T1 sequence (O35956 whole entry): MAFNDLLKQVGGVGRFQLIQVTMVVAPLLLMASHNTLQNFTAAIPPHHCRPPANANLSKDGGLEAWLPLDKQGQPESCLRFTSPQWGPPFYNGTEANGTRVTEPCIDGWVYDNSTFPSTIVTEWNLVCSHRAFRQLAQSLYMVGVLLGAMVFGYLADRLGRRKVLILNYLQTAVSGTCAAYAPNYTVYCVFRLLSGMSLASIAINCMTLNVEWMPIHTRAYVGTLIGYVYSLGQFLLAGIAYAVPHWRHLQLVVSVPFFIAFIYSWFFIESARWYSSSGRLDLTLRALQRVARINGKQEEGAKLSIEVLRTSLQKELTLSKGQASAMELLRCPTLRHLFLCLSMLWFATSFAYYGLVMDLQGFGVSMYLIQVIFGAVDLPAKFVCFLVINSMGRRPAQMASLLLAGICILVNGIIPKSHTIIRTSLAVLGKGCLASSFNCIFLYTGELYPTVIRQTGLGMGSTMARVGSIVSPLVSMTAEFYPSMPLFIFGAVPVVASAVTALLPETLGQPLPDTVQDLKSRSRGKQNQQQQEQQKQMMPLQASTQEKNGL
The data set can be described thus: TP_TRANSPORTER: uptake in Xenopus laevis oocytes. Type of data set: functional, cell-based. To be noted: oocyte.

Data set [2] concerns the target T1, Solute carrier family 22 member 6. The experiment in a line: TP_TRANSPORTER: inhibition of PAH uptake in Xenopus laevis oocytes. To be noted: oocyte. Type of data set: functional, cell-based.

For `C[C@H]1COc2c(N3CCN(C)CC3)c(F)cc3c(=O)c(C(=O)O)cn1c23.C[C@H]1COc2c(N3CCN(C)CC3)c(F)cc3c(=O)c(C(=O)O)cn1c23.O` [LEVOFLOXACIN], the Activity result in data set [1] was “is not a substrate [-]”.
The same measure, in the same setting: to `Cc1c(F)c(N2CCNC(C)C2)cc2c1c(=O)c(C(=O)O)cn2C1CC1` (centres undefined) [GREPAFLOXACIN] belongs “is not a substrate [-]”.
Turning to `Nc1nc2ncc(CNc3ccc(C(=O)N[C@@H](CCC(=O)O)C(=O)O)cc3)nc2c(=O)[nH]1` [FOLIC ACID], the Activity entry in data set [1] is “substrate [+]”; in data set [2], “inhibitor [+]”.
